Measured values reported in PMC12028158, “Synthesis and In Vitro Evaluation of the Anticancer Effect of Novel Phosphonium Vindoline Derivatives” (International Journal of Molecular Sciences, 2025).

Assays:
Assay type in all cases: cell-based
MDA-MB231ATCC = assay: NCI60 five-dose screen; conditions: Homo sapiens, MDA-MB-231; MDA-MB231ATCC, Breast Cancer, five-dose; read-out: GI50
HCT-116 [1] = assay: NCI60 five-dose screen; conditions: Homo sapiens; HCT-116, Colon Cancer, five-dose; read-out: GI50
NCI-H226 [2] = assay: NCI60 one-dose screen; conditions: Homo sapiens; NCI-H226, 10 μM, one-dose; read-out: Growth percent
MCF7 [3] = assay: NCI60 one-dose screen; conditions: Homo sapiens; MCF7, 10 μM, one-dose; read-out: Growth percent
U251 = assay: NCI60 one-dose screen; conditions: Homo sapiens, U-251; U251, 10 μM, one-dose; read-out: Growth percent
UACC-62 [4] = assay: NCI60 five-dose screen; conditions: Homo sapiens; UACC-62, Melanoma, five-dose; read-out: GI50
Leukemia panel = assay: NCI60 five-dose screen, panel mean; conditions: Homo sapiens; mean over Leukemia panel; read-out: Mean GI50
NCI-H23 = assay: NCI60 five-dose screen; conditions: Homo sapiens; NCI-H23, Non-small Cell Lung Cancer, five-dose; read-out: GI50
HCT-15 = assay: NCI60 five-dose screen; conditions: Homo sapiens; HCT-15, Colon Cancer, five-dose; read-out: GI50
UO-31 [5] = assay: NCI60 one-dose screen; conditions: Homo sapiens; UO-31, 10 μM, one-dose; read-out: Growth percent
NCI-H322M = assay: NCI60 one-dose screen; conditions: Homo sapiens, 10 μM, one-dose, read-out: Growth percent
NCI-H460 = assay: NCI60 five-dose screen; conditions: Homo sapiens; NCI-H460, Non-small Cell Lung Cancer, five-dose; read-out: GI50
K-562 = assay: NCI60 one-dose screen; conditions: Homo sapiens, K562; K-562, 10 μM, one-dose; read-out: Growth percent
M14 = assay: NCI60 one-dose screen; conditions: Homo sapiens; M14, 10 μM, one-dose; read-out: Growth percent
SK-OV-3 = assay: NCI60 five-dose screen; conditions: Homo sapiens; SK-OV-3, Ovarian Cancer, five-dose; read-out: GI50
MCF7 [6] = assay: NCI60 five-dose screen; conditions: Homo sapiens, MCF7, MCF7, Breast Cancer, five-dose; read-out: GI50
UACC-257 = assay: NCI60 five-dose screen; conditions: Homo sapiens, UACC-257, UACC-257, Melanoma, five-dose; read-out: GI50
Prostate Cancer panel = assay: NCI60 five-dose screen, panel mean; conditions: Homo sapiens; mean over Prostate Cancer panel; read-out: Mean GI50
HCT-116 [7] = assay: NCI60 one-dose screen; conditions: Homo sapiens; HCT-116, 10 μM, one-dose; read-out: Growth percent
HS 578T = assay: NCI60 five-dose screen; conditions: Homo sapiens; HS 578T, Breast Cancer, five-dose; read-out: GI50
NCI-H226 [8] = assay: NCI60 five-dose screen; conditions: Homo sapiens; NCI-H226, Non-small Cell Lung Cancer, five-dose; read-out: GI50
Ovarian Cancer panel = assay: NCI60 five-dose screen, panel mean; conditions: Homo sapiens; mean over Ovarian Cancer panel; read-out: Mean GI50
CAKI-1 = assay: NCI60 five-dose screen; conditions: Homo sapiens; CAKI-1, Renal Cancer, five-dose; read-out: GI50
UACC-62 [9] = assay: NCI60 one-dose screen; conditions: Homo sapiens; UACC-62, 10 μM, one-dose; read-out: Growth percent
SK-MEL-2 = assay: NCI60 five-dose screen; conditions: Homo sapiens, SK-MEL-2, SK-MEL-2, Melanoma, five-dose; read-out: GI50
RXF 393 = assay: NCI60 five-dose screen; conditions: Homo sapiens; RXF 393, Renal Cancer, five-dose; read-out: GI50
HOP-62 = assay: NCI60 one-dose screen; conditions: Homo sapiens; HOP-62, 10 μM, one-dose; read-out: Growth percent
SK-MEL-5 = assay: NCI60 five-dose screen; conditions: Homo sapiens; SK-MEL-5, Melanoma, five-dose; read-out: GI50
SNB-75 = assay: NCI60 five-dose screen; conditions: Homo sapiens; SNB-75, CNS Cancer, five-dose; read-out: GI50
HL-60(TB) = assay: NCI60 one-dose screen; conditions: Homo sapiens; HL-60(TB), 10 μM, one-dose; read-out: Growth percent
SN12C = assay: NCI60 one-dose screen; conditions: Homo sapiens, 10 μM, one-dose, read-out: Growth percent
A549/ATCC = assay: NCI60 one-dose screen; conditions: Homo sapiens; A549/ATCC, 10 μM, one-dose; read-out: Growth percent
[10] = system: 60 human tumor cell lines (NCI60); assay: NCI60 five-dose screen, overall mean; conditions: 60 cell, mean over all 60 cell lines, read-out: Mean GI50
DU-145 = assay: NCI60 five-dose screen; conditions: Homo sapiens; DU-145, Prostate Cancer, five-dose; read-out: GI50
SR = assay: NCI60 five-dose screen; conditions: Homo sapiens, Leukemia, five-dose, read-out: GI50
SK-MEL-28 = assay: NCI60 five-dose screen; conditions: Homo sapiens; SK-MEL-28, Melanoma, five-dose; read-out: GI50
NCI/ADR-RES = assay: NCI60 one-dose screen; conditions: Homo sapiens, 10 μM, one-dose, read-out: Growth percent
UO-31 [11] = assay: NCI60 five-dose screen; conditions: Homo sapiens; UO-31, Renal Cancer, five-dose; read-out: GI50

## CC[C@]12C=CCN3CC[C@@]4(c5ccc(OC)cc5N(C)[C@H]4[C@@](O)(C(=O)OC)[C@@H]1OC(=O)CCC[P+](c1ccccc1)(c1ccccc1)c1ccccc1)[C@@H]32 [compound 3, reference compound]
MDA-MB231ATCC
  GI50: 406 nM
HCT-116 [1]
  GI50: 965 nM
NCI-H226 [2]
  activity at 10 µM: 14%
MCF7 [3]
  activity at 10 µM: -3.34%
U251
  activity at 10 µM: 4.03%
UACC-62 [4]
  GI50: 222 nM
Leukemia panel
  GI50: 360 nM
NCI-H23
  GI50: 971 nM
HCT-15
  GI50: 8.5 µM
UO-31 [5]
  activity at 10 µM: 80%
NCI-H322M
  activity at 10 µM: 35.6%
NCI-H460
  GI50: 1220 nM
K-562
  activity at 10 µM: 10.4%
M14
  activity at 10 µM: 17.7%
SK-OV-3
  GI50: 894 nM
MCF7 [6]
  GI50: 306 nM
UACC-257
  GI50: 240 nM
Prostate Cancer panel
  GI50: 640 nM
HCT-116 [7]
  activity at 10 µM: 8.72%
HS 578T
  GI50: 1260 nM
NCI-H226 [8]
  GI50: 2040 nM
Ovarian Cancer panel
  GI50: 7.78 µM
CAKI-1
  GI50: 5.57 µM
UACC-62 [9]
  activity at 10 µM: -59.3%
SK-MEL-2
  GI50: 322 nM
RXF 393
  GI50: 705 nM
HOP-62
  activity at 10 µM: 2.56%
SK-MEL-5
  GI50: 766 nM
SNB-75
  GI50: 750 nM
HL-60(TB)
  activity at 10 µM: -53.1%
SN12C
  activity at 10 µM: 2.73%
A549/ATCC
  activity at 10 µM: 13.4%
[10]
  GI50: 1980 nM
DU-145
  GI50: 1070 nM
SR
  GI50: 346 nM
SK-MEL-28
  GI50: 261 nM
NCI/ADR-RES
  activity at 10 µM: 100%
UO-31 [11]
  GI50: 10.8 µM
